Data reported in patent publication US8969554B2, “6-acyl-1,2,4-triazine-3,5-dione derivative and herbicides” (Kumiai Chemical Industry Co., Ltd., priority 2010, dated 2015).

Columns and labels:
Assay type in all cases: in vivo
Setaria viridis = assay: Herbicidal activity by field foliage treatment (Test example 3); details: 1000 g effective component per hectare, day 14 after the treatment;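 further: index 0 to 10 in 10% steps of herbicidal effect with 10 meaning complete death and 0 below 10%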
Description: Test example 3 Test for Determining Herbicidal Activity by Field Foliage Treatment A 80 cm^2 wide plastic pot was filled with a field soil and seeds of each of Indian millet and A. retroflexus were sowed and then incubated for 2 weeks in a green house. The wettable powder produced with reference to the Formulation example 1 was diluted water, and applied from the air to entire body of the plant as foliage treatment by using a small sprayer in an amount of 1000 liters per hectare so that the effective component is 1000 g per hectare. After that, the plants were cultivated in a greenhouse, and on day 14 after the treatment, evaluation was made by the criteria described in Table 72 for determining the herbicidal effects.

Scirpus juncoides Rocxb. = assay: Herbicidal activity by paddy field soil treatment (Test Example 1); parameters: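 index 0 to 10 in 10% steps of herbicidal effect with 10 meaning complete death and 0 below 10%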; details: applied on water surface, 1000 g of effective component per hectare, day 21 after the treatment
How it was run: (§1)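 Herbicidal effect is rated on a graded scale 21 days after treatment. Treatment: wettable powder diluted in water, applied onto the flood water (3 cm deep) of sown paddy-soil pots on the day after sowing, 1000 g active component per hectare, greenhouse cultivation.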

Monochoria vaginalis = assay: as above; parameters: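 index 0 to 10 in 10% steps of herbicidal effect with 10 meaning complete death and 0 below 10%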; details: 1000 g of effective component per hectare, evaluated on day 21 after the treatment, criteria of Table 72
How it was run: as §1

Echinochloa oryzicola = assay: as above; parameters: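 index 0 to 10 in 10% steps of herbicidal effect with 10 meaning complete death and 0 below 10%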; details: 1000 g of effective component per hectare, evaluated on day 21 after the treatment, criteria of Table 72
How it was run: as §1

Echinochloa crus-galli = assay: Herbicidal activity by field foliage treatment (Test example 3); parameters: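 index 0 to 10 in 10% steps of herbicidal effect with 10 meaning complete death and 0 below 10%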; details: 1000 g effective component per hectare, day 14 after the treatment
How it was run: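 Potted field-soil plants grown 2 weeks in a greenhouse were sprayed over the whole foliage with diluted wettable powder at 1000 L/ha, delivering 1000 g active ingredient per hectare. Herbicidal effect scored by visual criteria 14 days after treatment.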

A. retroflexus [1] = assay: as above; parameters: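 index 0 to 10 in 10% steps of herbicidal effect with 10 meaning complete death and 0 below 10%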; details: 1000 g effective component per hectare, day 14 after the treatment
How it was run: (§2)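 Herbicidal effect is rated on a scoring scale 14 days after treatment. Seedlings raised 2 weeks in field soil under glass receive an overall foliar spray of wettable powder diluted in water, giving 1000 g active component per hectare.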

Indian millet [2] = assay: as above; parameters: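 index 0 to 10 in 10% steps of herbicidal effect with 10 meaning complete death and 0 below 10%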; details: 1000 g effective component per hectare, day 14 after the treatment
How it was run: as §2

A. retroflexus [3] = assay: Herbicidal activity by field soil treatment (Test example 2); parameters: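 index 0 to 10 in 10% steps of herbicidal effect with 10 meaning complete death and 0 below 10%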; details: 1000 g effective component per hectare, day 21 after the treatment
How it was run: (§3)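 Herbicidal effect is rated by fixed criteria on day 21 post-treatment. Before that, pots of field soil holding freshly sown, soil-covered seeds receive a surface spray of diluted wettable powder (1000 g per hectare effective component, spray volume 1000 liters per hectare) and are kept in a greenhouse.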

Indian millet [4] = assay: as above; parameters: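 index 0 to 10 in 10% steps of herbicidal effect with 10 meaning complete death and 0 below 10%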; details: 1000 g effective component per hectare, day 21 after the treatment
How it was run: as §3

For Cn1nc(C(=O)O)c(=O)n(-c2c(F)c(F)cc(F)c2F)c1=O [V-363], which “herbicidal effect index, Setaria viridis” value (Setaria viridis) is on record?
Its value is 10.

And the “herbicidal effect index, S. juncoides Rocxb.” value (Scirpus juncoides Rocxb.)?
Its value is 10.

And the “Herbicidal effects index number, Monochoria vaginalis” value (Monochoria vaginalis)?
The value was 10.

And the “Herbicidal effects index number, Echinochloa oryzicola” value (Echinochloa oryzicola)?
Its value is 10.

What about the “herbicidal effect index, Echinochloa crus-galli” value (Echinochloa crus-galli) of the same compound?
The value was 10.

What about the “herbicidal effect index, Amaranthus retroflexus” value (A. retroflexus [1]) of the same compound?
The value was 10.

What about the “herbicidal effect index, Abutilon theophrasti” value (Indian millet [2]) of the same compound?
The value was 10.

Cn1nc(C(=O)C2=C(O)C(C)(C)C(=O)C(C)(C)C2=O)c(=O)n(-c2ccccc2)c1=O [VI-1] was tested. Which “herbicidal effect index, Amaranthus retroflexus” value (A. retroflexus [3]) did it give?
The value was 10.

What about the “herbicidal effect index, Abutilon theophrasti” value (Indian millet [4]) of the same compound?
The value was 10.

And the “herbicidal effect index, Setaria viridis” value (Setaria viridis)?
Its value is 10.

And the “herbicidal effect index, S. juncoides Rocxb.” value (Scirpus juncoides Rocxb.)?
The value was 10.

And the “Herbicidal effects index number, Monochoria vaginalis” value (Monochoria vaginalis)?
The value was 10.

And the “Herbicidal effects index number, Echinochloa oryzicola” value (Echinochloa oryzicola)?
The value was 10.

What about the “herbicidal effect index, Echinochloa crus-galli” value (Echinochloa crus-galli) of the same compound?
Its value is 10.

What about the “herbicidal effect index, Amaranthus retroflexus” value (A. retroflexus [1]) of the same compound?
The value was 10.

What about the “herbicidal effect index, Abutilon theophrasti” value (Indian millet [2]) of the same compound?
The value was 10.

With Cn1nc(C(=O)O)c(=O)n(-c2cc(C(F)(F)F)cc(C(F)(F)F)c2)c1=O [V-364] as the compound, how does the “herbicidal effect index, Amaranthus retroflexus” value (A. retroflexus [3]) read?
Its value is 8.

What about the “herbicidal effect index, Abutilon theophrasti” value (Indian millet [4]) of the same compound?
Its value is 7.

What about the “herbicidal effect index, Setaria viridis” value (Setaria viridis) of the same compound?
Its value is 9.

What about the “herbicidal effect index, S. juncoides Rocxb.” value (Scirpus juncoides Rocxb.) of the same compound?
The value was 10.

And the “Herbicidal effects index number, Monochoria vaginalis” value (Monochoria vaginalis)?
The value was 10.

What about the “Herbicidal effects index number, Echinochloa oryzicola” value (Echinochloa oryzicola) of the same compound?
The value was 10.

And the “herbicidal effect index, Echinochloa crus-galli” value (Echinochloa crus-galli)?
The value was 8.

What about the “herbicidal effect index, Amaranthus retroflexus” value (A. retroflexus [1]) of the same compound?
The value was 10.

What about the “herbicidal effect index, Abutilon theophrasti” value (Indian millet [2]) of the same compound?
The value was 10.

Which “herbicidal effect index, Amaranthus retroflexus” value (A. retroflexus [3]) does the source give for Cn1nc(C(=O)C2=C(O)CCCC2=O)c(=O)n(-c2cc(C(F)(F)F)cc(C(F)(F)F)c2)c1=O [I-470] here?
Its value is 8.

And the “herbicidal effect index, Abutilon theophrasti” value (Indian millet [4])?
The value was 7.

And the “herbicidal effect index, Setaria viridis” value (Setaria viridis)?
Its value is 9.

What about the “herbicidal effect index, S. juncoides Rocxb.” value (Scirpus juncoides Rocxb.) of the same compound?
The value was 10.

And the “Herbicidal effects index number, Monochoria vaginalis” value (Monochoria vaginalis)?
Its value is 10.

And the “Herbicidal effects index number, Echinochloa oryzicola” value (Echinochloa oryzicola)?
The value was 10.

What about the “herbicidal effect index, Echinochloa crus-galli” value (Echinochloa crus-galli) of the same compound?
The value was 8.

And the “herbicidal effect index, Amaranthus retroflexus” value (A. retroflexus [1])?
The value was 10.

What about the “herbicidal effect index, Abutilon theophrasti” value (Indian millet [2]) of the same compound?
The value was 10.

For Cn1nc(C(=O)C2=C(O)CCCC2=O)c(=O)n(-c2ccccc2)c1=S [I-263], which “herbicidal effect index, Amaranthus retroflexus” value (A. retroflexus [3]) is on record?
Its value is 10.

What about the “herbicidal effect index, Abutilon theophrasti” value (Indian millet [4]) of the same compound?
The value was 8.

What about the “herbicidal effect index, Setaria viridis” value (Setaria viridis) of the same compound?
The value was 9.

And the “herbicidal effect index, S. juncoides Rocxb.” value (Scirpus juncoides Rocxb.)?
The value was 10.

And the “Herbicidal effects index number, Monochoria vaginalis” value (Monochoria vaginalis)?
Its value is 10.

What about the “Herbicidal effects index number, Echinochloa oryzicola” value (Echinochloa oryzicola) of the same compound?
Its value is 10.

And the “herbicidal effect index, Echinochloa crus-galli” value (Echinochloa crus-galli)?
Its value is 9.

What about the “herbicidal effect index, Amaranthus retroflexus” value (A. retroflexus [1]) of the same compound?
The value was 10.

And the “herbicidal effect index, Abutilon theophrasti” value (Indian millet [2])?
The value was 10.

With C#Cc1ccc(-n2c(=O)c(C(=O)C3=C(O)CCCC3=O)nn(C)c2=O)nc1 [I-463] as the compound, how does the “herbicidal effect index, Amaranthus retroflexus” value (A. retroflexus [3]) read?
Its value is 7.

And the “herbicidal effect index, Abutilon theophrasti” value (Indian millet [4])?
The value was 10.

What about the “herbicidal effect index, Setaria viridis” value (Setaria viridis) of the same compound?
Its value is 7.

What about the “herbicidal effect index, S. juncoides Rocxb.” value (Scirpus juncoides Rocxb.) of the same compound?
The value was 10.

And the “Herbicidal effects index number, Monochoria vaginalis” value (Monochoria vaginalis)?
The value was 10.

What about the “Herbicidal effects index number, Echinochloa oryzicola” value (Echinochloa oryzicola) of the same compound?
Its value is 10.

And the “herbicidal effect index, Echinochloa crus-galli” value (Echinochloa crus-galli)?
Its value is 7.

And the “herbicidal effect index, Amaranthus retroflexus” value (A. retroflexus [1])?
Its value is 10.

And the “herbicidal effect index, Abutilon theophrasti” value (Indian millet [2])?
Its value is 9.

For O=C1CCCC(O)=C1C(=O)c1nn(C(F)F)c(=O)n(-c2ccccc2)c1=O [I-261], which “herbicidal effect index, Abutilon theophrasti” value (Indian millet [4]) is on record?
The value was 10.

And the “herbicidal effect index, Setaria viridis” value (Setaria viridis)?
Its value is 7.

And the “herbicidal effect index, S. juncoides Rocxb.” value (Scirpus juncoides Rocxb.)?
Its value is 8.

What about the “Herbicidal effects index number, Monochoria vaginalis” value (Monochoria vaginalis) of the same compound?
The value was 10.

What about the “Herbicidal effects index number, Echinochloa oryzicola” value (Echinochloa oryzicola) of the same compound?
The value was 8.

What about the “herbicidal effect index, Amaranthus retroflexus” value (A. retroflexus [1]) of the same compound?
Its value is 10.

What about the “herbicidal effect index, Abutilon theophrasti” value (Indian millet [2]) of the same compound?
Its value is 10.

With Cn1nc(C(=O)C2=C(O)CCCC2=O)c(=O)n(-c2c(F)c(F)cc(F)c2F)c1=O [I-469] as the compound, how does the “herbicidal effect index, Setaria viridis” value (Setaria viridis) read?
The value was 10.

What about the “herbicidal effect index, S. juncoides Rocxb.” value (Scirpus juncoides Rocxb.) of the same compound?
Its value is 10.

And the “Herbicidal effects index number, Monochoria vaginalis” value (Monochoria vaginalis)?
The value was 10.

And the “Herbicidal effects index number, Echinochloa oryzicola” value (Echinochloa oryzicola)?
Its value is 10.

And the “herbicidal effect index, Echinochloa crus-galli” value (Echinochloa crus-galli)?
The value was 10.

What about the “herbicidal effect index, Amaranthus retroflexus” value (A. retroflexus [1]) of the same compound?
The value was 10.

What about the “herbicidal effect index, Abutilon theophrasti” value (Indian millet [2]) of the same compound?
Its value is 10.

Which results are given for Cn1nc(C(=O)O)c(=O)n(-c2cc(Cl)c(Cl)c(Cl)c2)c1=O [V-358]?
herbicidal effect index, Amaranthus retroflexus (A. retroflexus [3]): 10; herbicidal effect index, Abutilon theophrasti (Indian millet [4]): 10; herbicidal effect index, Setaria viridis (Setaria viridis): 10; herbicidal effect index, S. juncoides Rocxb. (Scirpus juncoides Rocxb.): 10; Herbicidal effects index number, Monochoria vaginalis (Monochoria vaginalis): 10; Herbicidal effects index number, Echinochloa oryzicola (Echinochloa oryzicola): 10; herbicidal effect index, Echinochloa crus-galli (Echinochloa crus-galli): 8; herbicidal effect index, Amaranthus retroflexus (A. retroflexus [1]): 10; herbicidal effect index, Abutilon theophrasti (Indian millet [2]): 10
